These results are taken from patent US20040029172A1, “Generation of combinatorial libraries and assessment thereof by deconvolution” (priority 2000, published 2004).

For the experiment, the target named is Concanavalin A (Canavalia ensiformis, UniProt P02866). The following applies: FIG. 5; complete library 2:1-6 and 2:A-I.

Procedure: Concanavalin A and all reagents were obtained from common commercial sources (Lancaster, Fluka, Aldrich, Bachem, Sigma). […] The binding effect of the equilibrated mixtures was determined using competitive inhibition of enzyme-labelled concanavalin A, and were carried out using a Victor microtiter plate reader.
The complete library (CL) was designed to contain near equal amounts of each final species at a concentration of approximately 12 μM. The final solution contained 2.5 mM of each carbohydrate aldehyde (2:1-6), and varying amounts of hydrazides: 2:A, 70 μM; 2:B-E, 0.24 mM; 2:F, 0.42 mM; 2:G, 0.65 mM; 2:H, 0.88 mM; 2:I, 2.5 mM. The mixture was made in ammonium formate buffer at pH 4.0, and was equilibrated at ambient temperature for one week to ensure full reaction.
The different sublibraries (SL1-SLI) were prepared under identical conditions, where one component (2:1-6, 2:A-I) was removed from the mixture each time. Aliquots of the solution were subsequently taken out to test the inhibitory activity on Concanavalin A.

Regarding `O=Cc1ccc(OC2OC(CO)C(O)C(O)C2O)cc1` (stereo not shown) [2:6], the “effect on Con A binding when the component is removed from the complete library” value was “largest effects”.
